{"source": "PubChem BioAssay AID743339", "about": "(Broad Institute, 2014)", "molecular_target": "Leucyl-cystinyl aminopeptidase (Mus musculus) (UniProt Q8C129)", "sequence (Q8C129 whole entry, looked up)": "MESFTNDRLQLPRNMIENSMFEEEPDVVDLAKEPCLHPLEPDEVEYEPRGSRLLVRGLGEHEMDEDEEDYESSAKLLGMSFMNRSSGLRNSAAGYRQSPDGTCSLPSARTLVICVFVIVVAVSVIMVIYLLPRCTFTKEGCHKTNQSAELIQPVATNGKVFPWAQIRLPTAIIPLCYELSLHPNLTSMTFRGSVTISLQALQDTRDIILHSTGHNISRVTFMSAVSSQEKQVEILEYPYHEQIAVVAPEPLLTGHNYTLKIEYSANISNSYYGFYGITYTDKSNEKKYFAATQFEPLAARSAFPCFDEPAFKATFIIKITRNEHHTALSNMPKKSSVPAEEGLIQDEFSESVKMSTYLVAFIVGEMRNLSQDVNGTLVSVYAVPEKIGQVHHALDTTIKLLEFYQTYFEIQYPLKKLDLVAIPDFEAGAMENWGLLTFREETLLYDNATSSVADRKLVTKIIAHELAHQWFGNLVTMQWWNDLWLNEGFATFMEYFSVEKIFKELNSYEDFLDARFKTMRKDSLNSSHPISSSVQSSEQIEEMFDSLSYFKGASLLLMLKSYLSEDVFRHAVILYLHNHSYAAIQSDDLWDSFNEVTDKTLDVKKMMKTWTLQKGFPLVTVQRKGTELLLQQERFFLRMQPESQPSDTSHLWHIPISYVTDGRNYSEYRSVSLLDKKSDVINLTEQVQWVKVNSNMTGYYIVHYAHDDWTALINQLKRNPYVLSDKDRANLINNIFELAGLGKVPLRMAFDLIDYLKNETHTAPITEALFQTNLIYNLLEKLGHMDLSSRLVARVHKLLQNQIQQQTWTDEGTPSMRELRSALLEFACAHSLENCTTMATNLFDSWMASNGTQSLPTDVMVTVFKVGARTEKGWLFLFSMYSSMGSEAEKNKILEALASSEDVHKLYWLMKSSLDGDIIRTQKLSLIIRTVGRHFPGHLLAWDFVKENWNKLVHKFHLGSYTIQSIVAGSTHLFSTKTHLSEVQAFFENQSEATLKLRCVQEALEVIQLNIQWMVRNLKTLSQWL", "test": "IRAP activators, dose response, selectivity assay for ERAP1 modulator project, biochemical, Leu-AMC fluorescence, cherry-picked samples (AID 743339)", "conditions": "purified IRAP, Leu-AMC cleavage fluorescence, 1 h", "note": "The source made the active and inactive calls.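 How the source made its calls: active means activation curve crossing 200% at or below the highest valid dose tested for that sample; inconclusive means flat curve with activation between 30 and 70%, or poor fit; inactive means the rest, including signal falling instead of rising.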", "data": [{"compound": "O=c1ccc2cc(O)c(O)cc2o1", "values": [{"measurement": "AC200", "value": 2120, "unit": "nM"}]}, {"compound": "COCCCn1c(C(=O)N2CCOCC2)cc2c(=O)n3ccccc3nc21", "values": [{"measurement": "AC200", "value": "> 2600 nM (inactive)"}]}, {"compound": "C[C@@H]1CCCCO[C@@H](CN(C)S(C)(=O)=O)[C@@H](C)CN([C@@H](C)CO)C(=O)c2cc(NS(=O)(=O)c3ccc(Cl)cc3)ccc2O1", "values": [{"measurement": "activation", "setting": "at 11 µM (top of the series)", "value": "-13.3% (inactive)"}]}, {"compound": "CCc1cc(=O)oc2c(CN3CCN(C)CC3)c(O)ccc12", "values": [{"measurement": "AC200", "value": 1540, "unit": "nM"}]}, {"compound": "CN1[C@@H]2Cn3c(ccc(/C=C/c4ccccc4)c3=O)[C@H]1[C@@H](C(=O)NC1CCCC1)[C@@H]2CO", "values": [{"measurement": "AC200", "value": 983, "unit": "nM"}]}, {"compound": "COc1ccc(CN(C)C[C@@H]2OCCCC[C@@H](C)Oc3ccc(NS(=O)(=O)c4cccs4)cc3C(=O)N([C@H](C)CO)C[C@H]2C)cc1", "values": [{"measurement": "activation", "setting": "at 11 µM (top of the series)", "value": "3.48% (inactive)"}]}, {"compound": "CCN1CCN(Cc2c(O)ccc3c(C)cc(=O)oc23)CC1", "values": [{"measurement": "AC200", "value": 1540, "unit": "nM"}]}, {"compound": "COc1ccc(NC(=O)Nc2cccc3c2O[C@H](CN(C)Cc2ccc(C(=O)O)cc2)[C@H](C)CN([C@H](C)CO)C3=O)cc1", "values": [{"measurement": "activation", "setting": "at 11 µM (top of the series)", "value": "8.21% (inactive)"}]}, {"compound": "COC(=O)[C@H]1[C@H](CO)[C@H]2Cn3c(ccc(/C=C/c4ccccc4)c3=O)[C@@H]1N2C(=O)C1CCC1", "values": [{"measurement": "AC200", "value": 842, "unit": "nM"}]}, {"compound": "C[C@@H]1CCCCO[C@@H](CN(C)C(=O)CCC(F)(F)F)[C@@H](C)CN([C@@H](C)CO)C(=O)c2cc(NS(=O)(=O)c3ccc(Cl)cc3)ccc2O1", "values": [{"measurement": "activation", "setting": "at 5 µM (top of the series)", "value": "22.3% (inactive)"}]}, {"compound": "COc1ccc(CN(C)C[C@H]2OCCCC[C@@H](C)Oc3ccc(NS(=O)(=O)c4cccs4)cc3C(=O)N([C@@H](C)CO)C[C@@H]2C)cc1", "values": [{"measurement": "activation", "setting": "at 11 µM (top of the series)", "value": "24.3% (inactive)"}]}, {"compound": "COc1ccc(-c2cc3ccc(O)cc3oc2=O)cc1OC", "values": [{"measurement": "AC200", "value": 983, "unit": "nM"}]}, {"compound": "C[C@@H]1CCCCO[C@@H](CN(C)Cc2ccccc2)[C@@H](C)CN([C@H](C)CO)C(=O)c2cc(NS(=O)(=O)c3cccs3)ccc2O1", "values": [{"measurement": "activation", "setting": "at 5.6 µM (top of the series)", "value": "16.2% (inactive)"}]}, {"compound": "O=c1cc(CN2CCN(Cc3ccccc3)CC2)c2ccc(O)cc2o1", "values": [{"measurement": "AC200", "value": 1470, "unit": "nM"}]}, {"compound": "Cc1cc(=O)oc2c(CN3CCCCC3)c(O)ccc12", "values": [{"measurement": "AC200", "value": 988, "unit": "nM"}]}, {"compound": "Cc1noc(C)c1NC(=O)N(C)C[C@@H]1Oc2c(NC(=O)Nc3ccccc3)cccc2C(=O)N([C@H](C)CO)C[C@@H]1C", "values": [{"measurement": "activation", "setting": "at 11 µM (top of the series)", "value": "12.9% (inactive)"}]}, {"compound": "O=C(C[C@H]1CC[C@H]2[C@@H](COC[C@@H](O)CN2C(=O)Nc2cccc(Cl)c2)O1)N1CCCCC1", "values": [{"measurement": "activation", "setting": "at 11 µM (top of the series)", "value": "16.9% (inactive)"}]}, {"compound": "COc1ccc(C(=O)O)cc1S(=O)(=O)Nc1cc(C(F)(F)F)ccc1N1CCCCC1", "values": [{"measurement": "activation", "setting": "at 11 µM (top of the series)", "value": "18.7% (inactive)"}]}, {"compound": "NC(=NCCc1c[nH]c2ccccc12)NS(=O)(=O)c1cc(F)ccc1F", "values": [{"measurement": "activation", "setting": "at 11 µM (top of the series)", "value": "20.9% (inactive)"}]}, {"compound": "Cc1c(O)ccc2c(CN3CCN(Cc4ccccc4)CC3)cc(=O)oc12", "values": [{"measurement": "AC200", "value": "> 2600 nM (inactive)"}]}, {"compound": "COc1ccc(CN(C)C[C@H]2OCCCC[C@@H](C)Oc3ccc(NS(=O)(=O)c4cccs4)cc3C(=O)N([C@@H](C)CO)C[C@H]2C)cc1", "values": [{"measurement": "activation", "setting": "at 11 µM (top of the series)", "value": "2.6% (inactive)"}]}, {"compound": "Cc1c(O)ccc2cc(S(=O)(=O)c3ccccc3)c(=O)oc12", "values": [{"measurement": "AC200", "value": 439, "unit": "nM"}]}, {"compound": "CNC[C@H]1OCCCC[C@@H](C)Oc2ccc(NS(=O)(=O)c3ccc(C)cc3)cc2C(=O)N([C@@H](C)CO)C[C@H]1C", "values": [{"measurement": "activation", "setting": "at 11 µM (top of the series)", "value": "-8.83% (inactive)"}]}, {"compound": "Cc1cc(=O)oc2cc(NS(=O)(=O)c3ccc(F)cc3)ccc12", "values": [{"measurement": "AC200", "value": 998, "unit": "nM"}]}, {"compound": "O=c1ccc2cc(O[C@@H]3O[C@@H](CO)[C@H](O)[C@@H](O)[C@@H]3O)c(O)cc2o1", "values": [{"measurement": "AC200", "value": 363, "unit": "nM"}]}, {"compound": "COc1ccc(NC(=O)Nc2ccc3c(c2)C(=O)N([C@@H](C)CO)C[C@@H](C)[C@H](CN(C)Cc2ccc(C(=O)O)cc2)OCCCC[C@H](C)O3)cc1", "values": [{"measurement": "activation", "setting": "at 11 µM (top of the series)", "value": "58.5% (inactive)"}]}, {"compound": "C[C@@H]1CCCCO[C@H](CN(C)Cc2ccc(C(=O)O)cc2)[C@H](C)CN([C@@H](C)CO)C(=O)c2cc(NC(=O)Nc3ccc(C(F)(F)F)cc3)ccc2O1", "values": [{"measurement": "activation", "setting": "at 11 µM (top of the series)", "value": "11.1% (inactive)"}]}, {"compound": "Cc1noc(C)c1S(=O)(=O)Nc1ccc2c(c1)C(=O)N([C@H](C)CO)C[C@@H](C)[C@@H](CN(C)CC1CCCCC1)OCCCC[C@@H](C)O2", "values": [{"measurement": "activation", "setting": "at 11 µM (top of the series)", "value": "2.83% (inactive)"}]}, {"compound": "O=c1oc2c(CN3CCN(CCO)CC3)c(O)ccc2cc1-c1ccccn1", "values": [{"measurement": "AC200", "value": 275, "unit": "nM"}]}, {"compound": "CCN1[C@@H]2c3ccc(/C=C/c4ccccc4)c(=O)n3C[C@H]1[C@H](CO)[C@H]2C(=O)N1CCOCC1", "values": [{"measurement": "AC200", "value": 2310, "unit": "nM"}]}, {"compound": "Cc1cc(=O)oc2c(CN3CCN(C)CC3)c(O)c(Cl)cc12", "values": [{"measurement": "AC200", "value": 634, "unit": "nM"}]}, {"compound": "O=C(C[C@@H]1CC[C@@H]2[C@H](COC[C@H](O)CN2C(=O)Nc2cccc(Cl)c2)O1)N1CCCCC1", "values": [{"measurement": "activation", "setting": "at 11 µM (top of the series)", "value": "7.14% (inactive)"}]}, {"compound": "N#Cc1c(N2CCNCC2)nc(-c2ccco2)c2c1CCCC2", "values": [{"measurement": "activation", "setting": "at 11 µM (top of the series)", "value": "56.4% (inactive)"}]}, {"compound": "CCCCc1cc(=O)oc2cc(O)ccc12", "values": [{"measurement": "AC200", "value": 1670, "unit": "nM"}]}, {"compound": "CCC(=O)N(C)C[C@H]1Oc2ncc(C#Cc3ccncc3)cc2C(=O)N([C@H](C)CO)C[C@H]1C", "values": [{"measurement": "activation", "setting": "at 11 µM (top of the series)", "value": "4.22% (inactive)"}]}, {"compound": "C[C@H](CO)N1C[C@H](C)[C@H](CN(C)Cc2ccncc2)Oc2c(NC(=O)Nc3ccc(C(F)(F)F)cc3)cccc2C1=O", "values": [{"measurement": "activation", "setting": "at 11 µM (top of the series)", "value": "10.6% (inactive)"}]}, {"compound": "Cc1c(CC(=O)N2CCN(C(=O)C3COc4ccccc4O3)CC2)c(=O)oc2cc(O)c(Cl)cc12", "note": "(stereo not given)", "values": [{"measurement": "AC200", "value": 661, "unit": "nM"}]}, {"compound": "C[C@@H]1CCCCO[C@@H](CN(C)C)[C@H](C)CN([C@@H](C)CO)C(=O)c2cc(NC(=O)Nc3ccc(C(F)(F)F)cc3)ccc2O1", "values": [{"measurement": "activation", "setting": "at 10 µM (top of the series)", "value": "-1.06% (inactive)"}]}, {"compound": "C[C@H]1CN([C@@H](C)CO)C(=O)c2cccc(NC(=O)Nc3ccc4c(c3)OCO4)c2O[C@@H]1CN(C)CC1CC1", "values": [{"measurement": "activation", "setting": "at 11 µM (top of the series)", "value": "-1.26% (inactive)"}]}, {"compound": "COc1cc2ccc(=O)oc2cc1O", "values": [{"measurement": "AC200", "value": 348, "unit": "nM"}]}, {"compound": "C[C@@H]1CCCCO[C@@H](CN(C)Cc2ccc3c(c2)OCO3)[C@@H](C)CN([C@@H](C)CO)C(=O)c2cc(NS(=O)(=O)c3ccccc3)ccc2O1", "values": [{"measurement": "activation", "setting": "at 5.6 µM (top of the series)", "value": "7.88% (inactive)"}]}, {"compound": "COc1ccc2c3c([nH]c2c1)[C@H](CO)N(Cc1cc(F)ccc1F)CC31CN(C)C1", "values": [{"measurement": "activation", "setting": "at 11 µM (top of the series)", "value": "1.85% (inactive)"}]}, {"compound": "CCc1cc(=O)oc2c(CNCc3c(F)cccc3Cl)c(O)ccc12", "values": [{"measurement": "AC200", "value": 832, "unit": "nM"}]}, {"compound": "O=C(O)c1cccc(NC(=O)c2ccccc2NC(=O)c2cccc([N+](=O)[O-])c2)c1", "values": [{"measurement": "activation", "setting": "at 11 µM (top of the series)", "value": "8.03% (inactive)"}]}, {"compound": "Cc1c(C)c2ccc(O)c(CN3CCCC3)c2oc1=O", "values": [{"measurement": "AC200", "value": 1040, "unit": "nM"}]}, {"compound": "COc1ccc(S(=O)(=O)Nc2ccc3c(c2)C(=O)N([C@@H](C)CO)C[C@H](C)[C@H](CN(C)C)OCCCC[C@@H](C)O3)cc1", "values": [{"measurement": "activation", "setting": "at 11 µM (top of the series)", "value": "-2.35% (inactive)"}]}, {"compound": "C[C@@H]1CCCCO[C@@H](CN(C)CC2CCCCC2)[C@H](C)CN([C@@H](C)CO)C(=O)c2cc(NC(=O)Nc3ccccc3)ccc2O1", "values": [{"measurement": "activation", "setting": "at 11 µM (top of the series)", "value": "-13.9% (inactive)"}]}, {"compound": "COc1cccc(S(=O)(=O)N(C)C[C@@H]2Oc3ncccc3C(=O)N([C@H](C)CO)C[C@@H]2C)c1", "values": [{"measurement": "activation", "setting": "at 11 µM (top of the series)", "value": "79.6% (inactive)"}]}, {"compound": "Cc1ccccc1-c1ccc2c(c1)O[C@@H](CN(C)Cc1ccc(C(=O)O)cc1)[C@@H](C)CN([C@H](C)CO)S2(=O)=O", "values": [{"measurement": "activation", "setting": "at 11 µM (top of the series)", "value": "3.78% (inactive)"}]}, {"compound": "CCCNC(=O)C[C@@H]1CC[C@@H]2[C@H](COC[C@H](O)CN2C(=O)Nc2cccc(Cl)c2)O1", "values": [{"measurement": "activation", "setting": "at 11 µM (top of the series)", "value": "30.1% (inactive)"}]}, {"compound": "CCNC(=O)[C@@H]1[C@@H](CO)[C@@H]2Cn3c(ccc(/C=C/c4ccccc4)c3=O)[C@H]1N2C(=O)C1CCCC1", "values": [{"measurement": "AC200", "value": 824, "unit": "nM"}]}, {"compound": "CCN(CCCl)c1cc(CN(C)C)cc(NC(=O)c2ccc(C(=O)Nc3cc(CN(C)C)cc(N(CC)CCCl)c3)cc2)c1", "values": [{"measurement": "activation", "setting": "at 11 µM (top of the series)", "value": "-21% (inactive)"}]}, {"compound": "CCCNC(=O)C[C@H]1CC[C@@H]2[C@H](COC[C@H](O)CN2C(=O)Nc2cccc(Cl)c2)O1", "values": [{"measurement": "activation", "setting": "at 11 µM (top of the series)", "value": "24.9% (inactive)"}]}, {"compound": "CCCN(C)C[C@@H]1OCCCC[C@@H](C)Oc2ccc(NS(=O)(=O)c3ccc(C)cc3)cc2C(=O)N([C@@H](C)CO)C[C@@H]1C", "values": [{"measurement": "activation", "setting": "at 5 µM (top of the series)", "value": "0.889% (inactive)"}]}, {"compound": "Cc1c(-c2ccccc2)c(=O)oc2cc(O)ccc12", "values": [{"measurement": "AC200", "value": 1240, "unit": "nM"}]}]}
